Results taken from patent US20260166128A1, “HUMAN AMYLIN ANALOG, AND DERIVATIVE THEREOF AND USE THEREOF” (priority 2022, published 2026).
Numbered stars: 1 amine (or outer) side, 2 acyl side, 3 side chain; on linkers, the order of the positions; unused ones are H or OH. Bridge positions count the residues as written; N and C are the ends. Square brackets hold non-standard residues; d marks the D form. Side chains are listed from the residue outwards. Peptide text beside a SMILES is read from it. * marks the point of attachment. C20 diacid = O=C(O)CCCCCCCCCCCCCCCCCCC(=O)*; C18 diacid = O=C(O)CCCCCCCCCCCCCCCCC(=O)*; γGlu = O=C(O)[C@H](CCC(=O)[*:2])N[*:1]; Hyp = O=C(O)[C@@H]1C[C@@H](O)CN1; AEEA = NCCOCCOCC(=O)O

Columns and labels:
[1] = target: T1, human amylin receptor (Homo sapiens, UniProt O60896+P30988); experiment: Luciferase assay of amylin derivatives in amylin receptor/CRE-luc CHO cell line; assay type: cell-based; settings: CHO-K1/Ga15/AMY3 CRE-luc cells, 24 hours incubation, F12 medium containing 10% FBS; read-out: EC50
T1 construct: host or cells: CHO-K1/Ga15/AMY3 cells, further stably transfected with a CRE-luciferase plasmid
T1 sequence (P30988 25-474): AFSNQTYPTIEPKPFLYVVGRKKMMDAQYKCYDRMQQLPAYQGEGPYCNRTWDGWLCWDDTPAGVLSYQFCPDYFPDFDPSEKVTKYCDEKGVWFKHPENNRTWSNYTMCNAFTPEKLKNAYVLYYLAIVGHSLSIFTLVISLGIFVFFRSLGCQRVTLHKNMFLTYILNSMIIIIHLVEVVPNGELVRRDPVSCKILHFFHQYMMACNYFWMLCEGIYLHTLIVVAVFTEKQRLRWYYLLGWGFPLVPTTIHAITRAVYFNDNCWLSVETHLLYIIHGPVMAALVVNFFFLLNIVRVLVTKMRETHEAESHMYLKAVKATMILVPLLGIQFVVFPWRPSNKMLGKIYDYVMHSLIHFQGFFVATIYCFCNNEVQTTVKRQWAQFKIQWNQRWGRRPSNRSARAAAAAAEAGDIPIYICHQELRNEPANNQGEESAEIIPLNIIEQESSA
T1 sequence (O60896 24-148 partner): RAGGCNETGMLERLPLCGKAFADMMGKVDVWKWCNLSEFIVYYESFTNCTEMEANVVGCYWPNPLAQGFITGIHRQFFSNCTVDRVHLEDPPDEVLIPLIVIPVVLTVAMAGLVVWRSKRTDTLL
Description: The experiment was intended to detect the activity or efficacy of the amylin derivatives on a human amylin receptor in vitro by luciferase assay.
50 μL of growth medium (F12 medium containing 10% FBS) was added into each well of a white 96-well plate, and the stably transfected amylin/CRE-lue CHO cells were inoculated into the white 96-well plate at a density of about 20,000 cells/well for activity determination.

[2] = Freeze-thaw stability of derivatives (freeze-thaw yield by liquid chromatography); assay type: physicochemical; settings: for Dissolution property: appearance after dissolution at 0.2 mg/ml in 20 mM phosphate buffer solution (PB) (pH 7.0); for Freeze storage property: appearance after overnight storage at −20° C. and thawing to room temperature, 0.2 mg/ml in 20 mM PB (pH 7.0); for Freeze storage yield: concentration of polypeptide after freezing and thawing / concentration before, by liquid chromatography, −20° C. overnight
Method in brief: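 Freeze-thaw yield is the ratio of peptide concentration after versus before one overnight −20° C freeze and room-temperature thaw, both quantified by RP-HPLC of supernatant after centrifugation. Samples were 0.2 mg/ml freeze-dried derivative in 20 mM PB, pH 7.0.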

## CC[C@H](C)[C@H](NC(=O)[C@@H]1CCCN1C(=O)CNC(=O)[C@H](CC(C)C)NC(=O)[C@H](CC(N)=O)NC(=O)[C@H](CC(N)=O)NC(=O)[C@H](CCCCNC(=O)COCCOCCNC(=O)CC[C@H](NC(=O)CCCCCCCCCCCCCCCCC(=O)O)C(=O)O)NC(=O)[C@H](CO)NC(=O)[C@H](Cc1c[nH]cn1)NC(=O)[C@H](CCCNC(=N)N)NC(=O)[C@H](CC(C)C)NC(=O)[C@H](Cc1ccccc1)NC(=O)[C@H](CC(=O)O)NC(=O)[C@H](C)NC(=O)[C@H](CC(C)C)NC(=O)[C@H](CCCNC(=N)N)NC(=O)[C@H](CCC(N)=O)NC(=O)[C@@H](NC(=O)[C@H](C)NC(=O)[C@@H]1CSSC[C@H](NC(=O)[C@@H](N)CCCNC(=N)N)C(=O)N[C@@H](CC(N)=O)C(=O)N[C@@H]([C@@H](C)O)C(=O)N[C@@H](C)C(=O)N[C@@H]([C@@H](C)O)C(=O)N1)[C@@H](C)O)C(=O)N[C@@H](CC(C)C)C(=O)N1CCC[C@H]1C(=O)N1CCC[C@H]1C(=O)N[C@H](C(=O)N[C@@H](CC(N)=O)C(=O)N[C@H](C(=O)NCC(=O)N[C@@H](CO)C(=O)N[C@@H](CC(N)=O)C(=O)N[C@H](C(=O)N1C[C@H](O)C[C@H]1C(N)=O)[C@@H](C)O)C(C)C)[C@@H](C)O [PD117] (H-RCNTATCATQRLADFLRHSK([AEEA-γGlu-C18 diacid])NNLGPILPPTNVGSNT[Hyp]-NH2; disulfide 2-7 (inferred); N-terminus assumed)
[1]
  EC50: 0.014 nM
[2]
  Dissolution property: Clear
  Freeze storage property: Clear
  Freeze storage yield: 93.49%

## CC[C@H](C)[C@H](NC(=O)[C@@H]1CCCN1C(=O)CNC(=O)[C@H](CC(C)C)NC(=O)[C@H](CC(N)=O)NC(=O)[C@H](CC(N)=O)NC(=O)[C@H](CO)NC(=O)[C@H](CCCCNC(=O)COCCOCCNC(=O)CC[C@H](NC(=O)CCCCCCCCCCCCCCCCC(=O)O)C(=O)O)NC(=O)[C@H](Cc1c[nH]cn1)NC(=O)[C@H](CCCNC(=N)N)NC(=O)[C@H](CC(C)C)NC(=O)[C@H](Cc1ccccc1)NC(=O)[C@H](CC(=O)O)NC(=O)[C@H](C)NC(=O)[C@H](CC(C)C)NC(=O)[C@H](CCCNC(=N)N)NC(=O)[C@H](CCC(N)=O)NC(=O)[C@@H](NC(=O)[C@H](C)NC(=O)[C@@H]1CSSC[C@H](NC(=O)[C@@H](N)CCCNC(=N)N)C(=O)N[C@@H](CC(N)=O)C(=O)N[C@@H]([C@@H](C)O)C(=O)N[C@@H](C)C(=O)N[C@@H]([C@@H](C)O)C(=O)N1)[C@@H](C)O)C(=O)N[C@@H](CC(C)C)C(=O)N1CCC[C@H]1C(=O)N1CCC[C@H]1C(=O)N[C@H](C(=O)N[C@@H](CC(N)=O)C(=O)N[C@H](C(=O)NCC(=O)N[C@@H](CO)C(=O)N[C@@H](CC(N)=O)C(=O)N[C@H](C(=O)N1C[C@H](O)C[C@H]1C(N)=O)[C@@H](C)O)C(C)C)[C@@H](C)O [PD119] (H-RCNTATCATQRLADFLRHK([AEEA-γGlu-C18 diacid])SNNLGPILPPTNVGSNT[Hyp]-NH2; disulfide 2-7 (inferred); N-terminus assumed)
[1]
  EC50: 0.024 nM
[2]
  Dissolution property: Clear
  Freeze storage property: Clear
  Freeze storage yield: 103.04%

## CC[C@H](C)[C@H](NC(=O)[C@H](CCCCNC(=O)COCCOCCNC(=O)CC[C@H](NC(=O)CCCCCCCCCCCCCCCCCCC(=O)O)C(=O)O)NC(=O)CNC(=O)[C@H](CC(C)C)NC(=O)[C@H](CC(N)=O)NC(=O)[C@H](CC(N)=O)NC(=O)[C@H](CO)NC(=O)[C@H](CO)NC(=O)[C@H](Cc1c[nH]cn1)NC(=O)[C@H](CCCNC(=N)N)NC(=O)[C@H](CC(C)C)NC(=O)[C@H](Cc1ccccc1)NC(=O)[C@H](CC(=O)O)NC(=O)[C@H](C)NC(=O)[C@H](CC(C)C)NC(=O)[C@H](CCCNC(=N)N)NC(=O)[C@H](CCC(N)=O)NC(=O)[C@@H](NC(=O)[C@H](C)NC(=O)[C@@H]1CSSC[C@H](NC(=O)[C@@H](N)CCCNC(=N)N)C(=O)N[C@@H](CC(N)=O)C(=O)N[C@@H]([C@@H](C)O)C(=O)N[C@@H](C)C(=O)N[C@@H]([C@@H](C)O)C(=O)N1)[C@@H](C)O)C(=O)N[C@@H](CC(C)C)C(=O)N1CCC[C@H]1C(=O)N1CCC[C@H]1C(=O)N[C@H](C(=O)N[C@@H](CC(N)=O)C(=O)N[C@H](C(=O)NCC(=O)N[C@@H](CO)C(=O)N[C@@H](CC(N)=O)C(=O)N[C@H](C(=O)N1C[C@H](O)C[C@H]1C(N)=O)[C@@H](C)O)C(C)C)[C@@H](C)O [PD120] (H-RCNTATCATQRLADFLRHSSNNLGK([AEEA-γGlu-C20 diacid])ILPPTNVGSNT[Hyp]-NH2; disulfide 2-7 (inferred); N-terminus assumed)
[1]
  EC50: 0.023 nM
[2]
  Dissolution property: Clear
  Freeze storage property: Clear
  Freeze storage yield: 103.41%

## CC[C@H](C)[C@H](NC(=O)[C@@H]1CCCN1C(=O)CNC(=O)[C@H](CC(C)C)NC(=O)[C@H](CC(N)=O)NC(=O)[C@H](CC(N)=O)NC(=O)[C@H](CO)NC(=O)[C@H](CO)NC(=O)[C@H](Cc1c[nH]cn1)NC(=O)[C@H](CCCNC(=N)N)NC(=O)[C@H](CC(C)C)NC(=O)[C@H](Cc1ccccc1)NC(=O)[C@H](CC(=O)O)NC(=O)[C@H](C)NC(=O)[C@H](CC(C)C)NC(=O)[C@H](CCCNC(=N)N)NC(=O)[C@H](CCC(N)=O)NC(=O)[C@@H](NC(=O)[C@H](C)NC(=O)[C@@H]1CSSC[C@H](NC(=O)[C@H](CCCCN)NC(=O)COCCOCCNC(=O)COCCOCCNC(=O)CC[C@H](NC(=O)CCCCCCCCCCCCCCCCCCC(=O)O)C(=O)O)C(=O)N[C@@H](CC(N)=O)C(=O)N[C@@H]([C@@H](C)O)C(=O)N[C@@H](C)C(=O)N[C@@H]([C@@H](C)O)C(=O)N1)[C@@H](C)O)C(=O)N[C@@H](CC(C)C)C(=O)N1CCC[C@H]1C(=O)N1CCC[C@H]1C(=O)N[C@H](C(=O)N[C@@H](CC(N)=O)C(=O)N[C@H](C(=O)NCC(=O)N[C@@H](CO)C(=O)N[C@@H](CC(N)=O)C(=O)N[C@H](C(=O)N1C[C@H](O)C[C@H]1C(N)=O)[C@@H](C)O)C(C)C)[C@@H](C)O [PD123] ({C20 diacid-γGlu-AEEA-AEEA}-KCNTATCATQRLADFLRHSSNNLGPILPPTNVGSNT[Hyp]-NH2; disulfide 2-7 (inferred))
[1]
  EC50: 0.068 nM
[2]
  Dissolution property: Clear
  Freeze storage property: Clear
  Freeze storage yield: 102.11%

## CC[C@H](C)[C@H](NC(=O)[C@@H]1CCCN1C(=O)CNC(=O)[C@H](CC(C)C)NC(=O)[C@H](CC(N)=O)NC(=O)[C@H](CC(N)=O)NC(=O)[C@H](CO)NC(=O)[C@H](CO)NC(=O)[C@H](Cc1c[nH]cn1)NC(=O)[C@H](CCCNC(=N)N)NC(=O)[C@H](CC(C)C)NC(=O)[C@H](Cc1ccccc1)NC(=O)[C@H](CC(=O)O)NC(=O)[C@H](C)NC(=O)[C@H](CC(C)C)NC(=O)[C@H](CCCNC(=N)N)NC(=O)[C@H](CCC(N)=O)NC(=O)[C@@H](NC(=O)[C@H](C)NC(=O)[C@@H]1CSSC[C@H](NC(=O)[C@H](CCCCN)NC(=O)COCCOCCNC(=O)CC[C@H](NC(=O)CCCCCCCCCCCCCCCCC(=O)O)C(=O)O)C(=O)N[C@@H](CC(N)=O)C(=O)N[C@@H]([C@@H](C)O)C(=O)N[C@@H](C)C(=O)N[C@@H]([C@@H](C)O)C(=O)N1)[C@@H](C)O)C(=O)N[C@@H](CC(C)C)C(=O)N1CCC[C@H]1C(=O)N1CCC[C@H]1C(=O)N[C@H](C(=O)N[C@@H](CC(N)=O)C(=O)N[C@H](C(=O)NCC(=O)N[C@@H](CO)C(=O)N[C@@H](CC(N)=O)C(=O)N[C@H](C(=O)N1C[C@H](O)C[C@H]1C(N)=O)[C@@H](C)O)C(C)C)[C@@H](C)O [PD125] ({C18 diacid-γGlu-AEEA}-KCNTATCATQRLADFLRHSSNNLGPILPPTNVGSNT[Hyp]-NH2; disulfide 2-7 (inferred))
[1]
  EC50: 0.01 nM
[2]
  Dissolution property: Clear
  Freeze storage property: Clear
  Freeze storage yield: 95.59%
